# From article PMC8469090 (Pharmaceutics, 2021)
# Tested on: cutaneous tumors (basal cell carcinoma, squamous cell carcinoma, melanoma, and others)
# Assay: Tumor response 2 months after electrochemotherapy (RECIST 1.1)
# Conditions: for tumor complete response rate 2 months after therapy: biopsied tumors, electrochemotherapy with i.v. bleomycin 15,000 IU/m^2; for Tumor Response (All Tumors): electrochemotherapy, 2 months, RECIST 1.1
# Procedure: All patients who presented with skin cancers, recurrent disease (and/or metastatic disease) or a second primary tumor in the head and neck region were either not suitable for conventional treatments or refused them. The patients were treated with electrochemotherapy at the Department of Otorhinolaryngology and Cervicofacial Surgery, University Medical Centre Ljubljana, Slovenia or the Department of Dermatology and Allergology, University of Szeged, Hungary. […] Treatment with electrochemotherapy was previously agreed upon by a multidisciplinary board, and written informed consent was obtained from all eligible patients. The selection of patients was performed according to the NICE guidelines. The included patients were older than 18 years and presented with different histologies of cutaneous tumors (basal cell carcinoma, squamous cell carcinoma, melanoma, and others). […] In the study, altogether 25 patients were included; 8 patients younger than 65 for blood sample collection, 4 patients younger than 65 for blood and tumor sample collection and 13 patients for tumor sample collection with no age limitation.
# Electrochemotherapy was performed according to the updated standard operating procedures [24]. […] Electric pulses for electrochemotherapy were generated by a Cliniporator pulse generator (IGEA, s.r.l., Carpi, Italy) and delivered by fixed geometry electrodes, i.e., mainly electrodes with eight needles arranged in two rows of four needles each with a distance of 4 mm between the rows. In one application of electric pulses, eight pulses with a voltage of 400 V, a pulse duration of 100 µs and a frequency of 5000 Hz were applied. The number of applications was adjusted to the size of the treated tumors.
# The tumor volumes were calculated according to the SOP, i.e., a × b^2 × π/6. Tumor response 2 months after electrochemotherapy was evaluated with a clinical exam according to RECIST 1.1 criteria [25].
substance,measurement,setting,value
bleomycin,tumor complete response rate 2 months after therapy,BCC (8/9),89%
same,tumor complete response rate 2 months after therapy,SCC (4/5),80%
same,Tumor Response (All Tumors),"Table 3 patient 1 (BCC, 3 lesions, 24,000 IU)","1 CR, 2 PR"
same,Tumor Response (All Tumors),"Table 3 patient 5 (BCC, 5 lesions, 27,000 IU)","4 CR, 1 SD"
same,Tumor Response (All Tumors),"Table 3 patient 7 (BCC, 5 lesions, 24,000 IU)",5 CR
same,Tumor Response (All Tumors),"Table 3 patient 11 * (SCC, 6 lesions, 30,000 IU)",6 CR
same,Tumor Response (All Tumors),"Table 3 patient 15 * (Melanoma, 3 lesions, 29,100 IU)",3 CR
same,Tumor Response (All Tumors),"Table 3 patient 17 (Porocarcinoma, 2 lesions, 29,850 IU)",2 CR
same,Tumor Response (All Tumors),"Table 3 patient 19 (BCC, 16 lesions, 21,900 IU)","11 CR, 5 PR"
